What was measured:
[1] = according to biopharmaceutical classification; cited from earlier work
[2] = reported, in Mexican population; cited from earlier work
[3] = Single-dose crossover comparative bioavailability study, fixed combination vs co-administered reference drugs, plasma HPLC-MS/MS
Protocol: In another embodiment of the invention, bioavailability tests are performed to determine whether there are differences in the magnitude and rate of absorption between the test product of this invention (fixed dose combination) and co-administration of reference drugs that impact the bioavailability of the drugs upon administration.
On the other hand, the determination of the pharmacokinetic parameters of Cmax and area under the plasma concentration curve with respect to time (ABC0-t) are determined, which allow characterizing the bioavailability of the drug of this invention from its dosage form, in terms of speed and degree of respective absorption. Therefore, the purpose of the bioavailability tests is to determine if there are differences in the magnitude and speed of absorption between the test product of the present invention (fixed combination) and the co-administration of reference drugs that impact the bioavailability of the drugs when administered under fasting conditions.
A total of 44 healthy volunteers (27 men and 17 women) were randomized in the study. […] After a period of 7 half-lives, the pharmacokinetic effect of washout can be completely disregarded. Each volunteer received the treatments under study according to randomization.
The pharmacokinetic parameters were determined through independent model methods. Descriptive statistics are presented below in Tables 19-21.

**Q.** Which solubility [1] does the source give for `CCC1=C(C)CN(C(=O)NCCc2ccc(S(=O)(=O)NC(=O)N[C@H]3CC[C@H](C)CC3)cc2)C1=O` [glimepiride] here?
**A.** low

**Q.** And the elimination half-life [2]?
**A.** 7.5 ± 4 h

**Q.** What about the “Intrasubject Variability Coefficient, Ln (ABC0-t) of glimepiride” value ([3]; both, human, in vivo) of the same compound?
**A.** 15.58%

**Q.** And the “Intrasubject Variability Coefficient, Ln (Cmax) of glimepiride” value ([3]; both, human, in vivo)?
**A.** 28.21%

**Q.** Which solubility [1] does the source give for `N#C[C@@H]1CCCN1C(=O)CN[C@@]12C[C@@H]3C[C@@H](CC(O)(C3)C1)C2` [vildagliptin] here?
**A.** high

**Q.** And the “Intrasubject Variability Coefficient, Ln (Cmax)” value ([3]; both, human, in vivo)?
**A.** 19.12%

**Q.** And the “Intrasubject Variability Coefficient, Ln (ABC0-t)” value ([3]; vildagliptin pharmacokinetic parameter)?
**A.** 9.14%

Reference: patent US20230310462A1, “COMBINATION DRUG FOR THE CONTROL AND MANAGEMENT OF TYPE 2 DIABETES MELLITUS” (LABORATORIOS SILANES S.A. DE C.V., priority 2020, published 2023)
